Calls of active or inactive are those of the source. The rule behind the calls is not given here.
Tests used:
Type in all cases: functional
Aspergillus fumigatus = test: Antifungal activity against Aspergillus fumigatus ATCC 204305 assessed as reduction in microbial growth after 72 hrs by CLSI based method
Cryptococcus neoformans = test: Antifungal activity against Cryptococcus neoformans ATCC 90113 assessed as reduction in microbial growth after 72 hrs by CLSI based method
Nakaseomyces glabratus = test: Antifungal activity against Candida glabrata ATCC 90030 assessed as reduction in microbial growth after 18 to 24 hrs by CLSI based method; conditions: time hrs 18-24
Candida albicans = test: Antifungal activity against Candida albicans ATCC 90028 assessed as reduction in microbial growth after 18 to 24 hrs by CLSI based method; conditions: time hrs 18-24

Row | Structure (SMILES) | MIC (Aspergillus fumigatus) [µg/mL] | MIC (Cryptococcus neoformans) [µg/mL] | Activity (Nakaseomyces glabratus) | Activity (Aspergillus fumigatus) | Activity (Cryptococcus neoformans) | Activity (Candida albicans) | MIC (Nakaseomyces glabratus) [µg/mL] | MIC (Candida albicans) [µg/mL]
1 | C[C@@H]1[C@H](O)[C@@H](C)/C=C/C=C/C=C/C=C/C=C/C=C/C=C/[C@H](O[C@@H]2O[C@H](C)[C@@H](O)[C@H](N)[C@@H]2O)C[C@@H]2O[C@](O)(C[C@@H](O)C[C@@H](O)[C@H](O)CC[C@@H](O)C[C@@H](O)CC(=O)O[C@H]1C)C[C@H](O)[C@H]2C(=O)O [AMPHOTERICIN B] | 2.5 | 0.63 | – | – | – | – | – | –
2 | C[N+](C)(C)CCOP(=O)([O-])OCCCCCCCCCCCCCCCCCCCCCOP(=O)([O-])OCC[N+](C)(C)C | – | – | inactive | inactive | inactive | inactive | – | –
3 | C[N+](C)(C)CCOP(=O)([O-])OCCCCCCCCCCCCCCCCCCCCCCOP(=O)([O-])OCC[N+](C)(C)C | 1.25 | 0.63 | – | – | – | – | 5 | 10
4 | C[N+](C)(C)CCOP(=O)([O-])OCCCCCCCCCCCCCCCCCCCCCCCOP(=O)([O-])OCC[N+](C)(C)C | – | – | inactive | inactive | inactive | inactive | – | –
5 | C[N+](C)(C)CCOP(=O)([O-])OCCCCCCCCCCCCCCCCCCCCCCCCOP(=O)([O-])OCC[N+](C)(C)C | – | – | inactive | inactive | inactive | inactive | – | –
